Reference: patent US9896435B2, “N-pyrrolidinyl,N′-pyrazolyl-urea, thiourea, guanidine and cyanoguanidine compounds as TrkA kinase inhibitors” (Array BioPharma Inc., priority 2012, dated 2018)

Assays:
Experiment in all cases: KinaseProfiler off-target kinase profiling
Type in all cases: biochemical
Details in all cases: 10 μM, ATP near Km
[1] = target: IGF-1R Activated (Homo sapiens (Human), UniProt P08069)
Protocol: (§1) Two representative compounds (Example 2, 14) of the invention were tested for off-target kinase activity at a concentration of 10 μM by Millipore, Inc. in their KinaseProfiler™ service against all the kinases available in their full kinase panel. These compounds were run in duplicate at a concentration of ATP near the Km for each individual kinase according to Millipore's specifications. The results are shown in Table B. Data are reported as percent of control (POC) and are the average of the two replicates.

[2] = target: MKNK2 (Homo sapiens (Human), UniProt Q9HBH9)
Protocol: as §1

[3] = target: ROCK-II (Homo sapiens (Human), UniProt O75116)
Protocol: as §1

[4] = target: CSK (Homo sapiens (Human), UniProt P41240)
Protocol: as §1

[5] = target: RIPK2 (Homo sapiens (Human), UniProt O43353)
Protocol: as §1

[6] = target: LKB1 (Homo sapiens (Human), UniProt Q15831)
Protocol: as §1

[7] = target: Ros (Homo sapiens (Human), UniProt P08922)
Protocol: as §1

[8] = target: MARK1 (Homo sapiens (Human), UniProt Q9P0L2)
Protocol: as §1

[9] = target: Pim-3 (Homo sapiens (Human), UniProt Q86V86)
Protocol: as §1

[10] = target: MSK1 (Homo sapiens (Human), UniProt O75582)
Protocol: as §1

[11] = target: Rse (Homo sapiens (Human), UniProt Q06418)
Protocol: as §1

[12] = target: TSSK2 (Homo sapiens (Human), UniProt Q96PF2)
Protocol: as §1

[13] = target: CLK3 (Homo sapiens (Human), UniProt P49761)
Protocol: as §1

[14] = target: Rsk2 (Homo sapiens (Human), UniProt P51812)
Protocol: as §1

[15] = target: DRAK1 (Homo sapiens (Human), UniProt Q9UEE5)
Protocol: as §1

[16] = target: PDK1 (Homo sapiens (Human), UniProt O15530)
Protocol: as §1

[17] = target: DAPK1 (Homo sapiens (Human), UniProt P53355)
Protocol: as §1

[18] = target: ERK1 (Homo sapiens (Human), UniProt P27361)
Protocol: as §1

[19] = target: FAK2 (Homo sapiens (Human), UniProt Q14289)
Protocol: as §1

[20] = target: Fes (Homo sapiens (Human), UniProt P07332)
Protocol: as §1

[21] = target: MRCKalpha (Homo sapiens (Human), UniProt Q5VT25)
Protocol: as §1

[22] = target: Abl-P (Homo sapiens (Human), UniProt P00519)
Protocol: as §1

[23] = target: CAMK1d (Homo sapiens (Human), UniProt Q8IU85)
Protocol: as §1

[24] = target: FGFR3 (Homo sapiens (Human), UniProt P22607)
Protocol: as §1

[25] = target: PKCbetaII (Homo sapiens (Human), UniProt P05771)
Protocol: as §1

[26] = target: PKD1 (Homo sapiens (Human), UniProt Q15139)
Protocol: as §1

[27] = target: PKCdelta (Homo sapiens (Human), UniProt Q05655)
Protocol: as §1

[28] = target: CDK2/cyclinA (Homo sapiens (Human), UniProt P24941)
Protocol: as §1

[29] = target: PRKG1alpha (Homo sapiens (Human), UniProt Q13976)
Protocol: as §1

[30] = target: FGFR1 (Homo sapiens (Human), UniProt P11362)
Protocol: as §1

[31] = target: CK1gamma1 (Homo sapiens (Human), UniProt Q9HCP0)
Protocol: as §1

[32] = target: KDR (Homo sapiens (Human), UniProt P35968)
Protocol: as §1

[33] = target: CAMK2g (Homo sapiens (Human), UniProt Q13555)
Protocol: as §1

[34] = target: NEK2 (Homo sapiens (Human), UniProt P51955)
Protocol: as §1

[35] = target: PAK4 (Homo sapiens (Human), UniProt O96013)
Protocol: as §1

[36] = target: TrkA (Homo sapiens (Human), UniProt P04629)
Protocol: as §1

[37] = target: SRPK2 (Homo sapiens (Human), UniProt P78362)
Protocol: as §1

[38] = target: PKCgamma (Homo sapiens (Human), UniProt P05129)
Protocol: as §1

[39] = target: Lck (Homo sapiens (Human), UniProt P06239)
Protocol: as §1

[40] = target: MAPKAP-K3 (Homo sapiens (Human), UniProt Q16644)
Protocol: as §1

Chain of TrkA (P04629 33-796): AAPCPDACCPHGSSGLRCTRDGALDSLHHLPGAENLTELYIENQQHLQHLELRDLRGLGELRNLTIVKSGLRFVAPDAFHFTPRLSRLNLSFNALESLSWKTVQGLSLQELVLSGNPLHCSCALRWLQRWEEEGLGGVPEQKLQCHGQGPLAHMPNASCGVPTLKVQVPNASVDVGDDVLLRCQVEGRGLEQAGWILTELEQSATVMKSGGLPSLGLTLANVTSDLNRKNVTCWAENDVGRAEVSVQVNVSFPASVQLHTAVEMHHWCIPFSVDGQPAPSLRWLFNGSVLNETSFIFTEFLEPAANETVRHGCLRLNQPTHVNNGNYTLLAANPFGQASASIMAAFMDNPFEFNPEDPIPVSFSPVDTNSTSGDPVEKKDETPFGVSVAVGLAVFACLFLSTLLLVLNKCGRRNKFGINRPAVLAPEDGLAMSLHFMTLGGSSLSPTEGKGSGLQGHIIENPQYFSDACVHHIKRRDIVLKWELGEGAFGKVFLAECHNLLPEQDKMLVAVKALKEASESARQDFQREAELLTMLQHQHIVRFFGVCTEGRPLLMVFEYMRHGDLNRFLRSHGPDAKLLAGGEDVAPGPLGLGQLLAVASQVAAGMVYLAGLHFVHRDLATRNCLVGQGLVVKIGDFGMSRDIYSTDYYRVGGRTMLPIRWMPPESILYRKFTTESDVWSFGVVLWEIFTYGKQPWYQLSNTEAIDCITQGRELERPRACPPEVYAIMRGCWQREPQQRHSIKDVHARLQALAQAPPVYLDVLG
Chain of FGFR3 (P22607 23-806): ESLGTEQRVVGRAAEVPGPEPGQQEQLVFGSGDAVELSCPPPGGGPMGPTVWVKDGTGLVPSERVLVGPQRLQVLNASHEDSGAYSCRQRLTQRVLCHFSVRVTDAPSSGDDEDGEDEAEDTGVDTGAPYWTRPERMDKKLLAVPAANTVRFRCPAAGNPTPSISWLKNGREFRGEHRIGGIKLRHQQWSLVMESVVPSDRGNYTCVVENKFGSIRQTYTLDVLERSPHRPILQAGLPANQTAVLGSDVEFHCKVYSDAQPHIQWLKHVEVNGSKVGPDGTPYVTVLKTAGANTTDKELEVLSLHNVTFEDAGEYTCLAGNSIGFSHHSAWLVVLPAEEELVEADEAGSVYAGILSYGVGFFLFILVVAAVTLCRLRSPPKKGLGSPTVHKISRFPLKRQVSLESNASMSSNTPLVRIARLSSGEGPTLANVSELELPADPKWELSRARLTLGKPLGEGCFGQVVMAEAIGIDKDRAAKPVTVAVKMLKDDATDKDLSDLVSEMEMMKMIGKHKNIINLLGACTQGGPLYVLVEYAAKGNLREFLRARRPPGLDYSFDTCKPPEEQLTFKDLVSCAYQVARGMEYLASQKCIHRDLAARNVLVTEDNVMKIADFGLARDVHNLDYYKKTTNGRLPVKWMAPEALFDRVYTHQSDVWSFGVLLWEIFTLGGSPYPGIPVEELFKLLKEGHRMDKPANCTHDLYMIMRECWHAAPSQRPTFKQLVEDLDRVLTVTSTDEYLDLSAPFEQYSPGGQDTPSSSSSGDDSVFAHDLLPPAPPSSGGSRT
Chain of Ros (P08922 28-2347): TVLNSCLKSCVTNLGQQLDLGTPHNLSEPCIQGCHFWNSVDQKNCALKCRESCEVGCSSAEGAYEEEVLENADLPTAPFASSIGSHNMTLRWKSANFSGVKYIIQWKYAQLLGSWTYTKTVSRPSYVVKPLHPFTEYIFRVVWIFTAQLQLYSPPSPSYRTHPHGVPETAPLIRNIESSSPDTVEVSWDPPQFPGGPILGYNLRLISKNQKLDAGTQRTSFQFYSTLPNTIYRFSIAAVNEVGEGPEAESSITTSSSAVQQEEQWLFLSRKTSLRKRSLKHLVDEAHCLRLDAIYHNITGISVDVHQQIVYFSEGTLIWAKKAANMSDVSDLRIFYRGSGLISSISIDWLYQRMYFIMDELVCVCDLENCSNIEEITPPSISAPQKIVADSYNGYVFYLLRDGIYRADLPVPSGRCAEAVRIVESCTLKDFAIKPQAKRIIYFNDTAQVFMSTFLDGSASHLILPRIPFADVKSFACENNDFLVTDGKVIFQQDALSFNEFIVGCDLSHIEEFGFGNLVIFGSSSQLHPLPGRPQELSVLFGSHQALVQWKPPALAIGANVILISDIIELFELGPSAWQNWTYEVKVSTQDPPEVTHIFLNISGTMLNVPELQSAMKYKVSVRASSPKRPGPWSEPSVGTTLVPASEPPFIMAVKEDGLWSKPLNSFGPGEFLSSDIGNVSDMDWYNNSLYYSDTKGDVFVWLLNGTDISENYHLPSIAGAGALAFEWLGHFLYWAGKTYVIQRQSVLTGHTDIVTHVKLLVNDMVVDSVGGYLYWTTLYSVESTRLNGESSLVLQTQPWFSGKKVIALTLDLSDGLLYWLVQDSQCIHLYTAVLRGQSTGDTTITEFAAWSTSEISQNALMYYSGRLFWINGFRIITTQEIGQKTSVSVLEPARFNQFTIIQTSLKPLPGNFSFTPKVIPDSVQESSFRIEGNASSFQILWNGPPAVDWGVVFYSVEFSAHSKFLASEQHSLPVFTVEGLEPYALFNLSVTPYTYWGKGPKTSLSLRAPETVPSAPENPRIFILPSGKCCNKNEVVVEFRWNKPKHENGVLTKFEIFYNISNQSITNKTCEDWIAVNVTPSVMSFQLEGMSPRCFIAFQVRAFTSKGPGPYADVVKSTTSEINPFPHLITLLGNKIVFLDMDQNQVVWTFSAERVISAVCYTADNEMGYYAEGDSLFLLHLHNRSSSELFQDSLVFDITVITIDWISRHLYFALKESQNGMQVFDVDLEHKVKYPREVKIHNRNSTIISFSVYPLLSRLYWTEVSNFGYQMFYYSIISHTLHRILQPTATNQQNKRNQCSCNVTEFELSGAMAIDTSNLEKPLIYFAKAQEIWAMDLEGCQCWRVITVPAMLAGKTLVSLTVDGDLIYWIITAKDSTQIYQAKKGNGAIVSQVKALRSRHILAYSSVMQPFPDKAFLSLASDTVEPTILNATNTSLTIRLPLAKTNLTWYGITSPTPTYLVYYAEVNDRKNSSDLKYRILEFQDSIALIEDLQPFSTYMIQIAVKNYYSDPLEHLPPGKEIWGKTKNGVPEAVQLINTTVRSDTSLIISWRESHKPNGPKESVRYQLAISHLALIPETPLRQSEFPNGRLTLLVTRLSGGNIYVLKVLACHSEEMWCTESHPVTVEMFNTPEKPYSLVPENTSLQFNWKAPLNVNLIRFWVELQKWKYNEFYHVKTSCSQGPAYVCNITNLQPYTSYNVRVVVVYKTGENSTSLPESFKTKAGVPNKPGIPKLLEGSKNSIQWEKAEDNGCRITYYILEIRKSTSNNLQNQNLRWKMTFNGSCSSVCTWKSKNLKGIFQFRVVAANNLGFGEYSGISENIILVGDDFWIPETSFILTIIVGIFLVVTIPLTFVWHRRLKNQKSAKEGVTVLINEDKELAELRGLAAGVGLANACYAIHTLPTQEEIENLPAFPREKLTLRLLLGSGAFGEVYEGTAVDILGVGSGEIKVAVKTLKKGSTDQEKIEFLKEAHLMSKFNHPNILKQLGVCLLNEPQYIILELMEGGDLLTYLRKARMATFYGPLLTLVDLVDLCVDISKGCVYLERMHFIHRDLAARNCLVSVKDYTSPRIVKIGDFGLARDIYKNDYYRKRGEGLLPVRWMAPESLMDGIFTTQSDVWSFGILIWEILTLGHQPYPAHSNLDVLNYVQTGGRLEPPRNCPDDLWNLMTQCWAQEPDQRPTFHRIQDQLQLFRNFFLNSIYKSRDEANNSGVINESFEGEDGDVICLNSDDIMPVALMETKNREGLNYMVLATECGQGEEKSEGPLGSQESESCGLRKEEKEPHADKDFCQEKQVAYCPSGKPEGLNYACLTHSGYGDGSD
Chain of CAMK2g (Q13555 whole entry): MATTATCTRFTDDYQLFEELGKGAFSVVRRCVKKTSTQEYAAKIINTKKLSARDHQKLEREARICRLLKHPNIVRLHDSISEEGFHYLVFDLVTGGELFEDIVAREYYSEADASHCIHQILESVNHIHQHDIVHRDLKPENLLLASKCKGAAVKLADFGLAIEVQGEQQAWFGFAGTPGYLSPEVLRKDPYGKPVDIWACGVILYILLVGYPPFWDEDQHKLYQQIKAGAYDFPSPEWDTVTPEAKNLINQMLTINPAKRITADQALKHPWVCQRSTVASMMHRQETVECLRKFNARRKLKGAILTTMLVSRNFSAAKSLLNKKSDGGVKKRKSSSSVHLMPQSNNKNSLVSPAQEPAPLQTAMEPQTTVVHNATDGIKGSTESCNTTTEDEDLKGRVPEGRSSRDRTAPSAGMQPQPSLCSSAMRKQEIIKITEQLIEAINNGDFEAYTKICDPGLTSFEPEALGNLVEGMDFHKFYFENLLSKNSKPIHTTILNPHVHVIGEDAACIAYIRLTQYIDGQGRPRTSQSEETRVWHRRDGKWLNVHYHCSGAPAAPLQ
Chain of PKCbetaII (P05771 other isoform, or with tags, fused parts or gaps): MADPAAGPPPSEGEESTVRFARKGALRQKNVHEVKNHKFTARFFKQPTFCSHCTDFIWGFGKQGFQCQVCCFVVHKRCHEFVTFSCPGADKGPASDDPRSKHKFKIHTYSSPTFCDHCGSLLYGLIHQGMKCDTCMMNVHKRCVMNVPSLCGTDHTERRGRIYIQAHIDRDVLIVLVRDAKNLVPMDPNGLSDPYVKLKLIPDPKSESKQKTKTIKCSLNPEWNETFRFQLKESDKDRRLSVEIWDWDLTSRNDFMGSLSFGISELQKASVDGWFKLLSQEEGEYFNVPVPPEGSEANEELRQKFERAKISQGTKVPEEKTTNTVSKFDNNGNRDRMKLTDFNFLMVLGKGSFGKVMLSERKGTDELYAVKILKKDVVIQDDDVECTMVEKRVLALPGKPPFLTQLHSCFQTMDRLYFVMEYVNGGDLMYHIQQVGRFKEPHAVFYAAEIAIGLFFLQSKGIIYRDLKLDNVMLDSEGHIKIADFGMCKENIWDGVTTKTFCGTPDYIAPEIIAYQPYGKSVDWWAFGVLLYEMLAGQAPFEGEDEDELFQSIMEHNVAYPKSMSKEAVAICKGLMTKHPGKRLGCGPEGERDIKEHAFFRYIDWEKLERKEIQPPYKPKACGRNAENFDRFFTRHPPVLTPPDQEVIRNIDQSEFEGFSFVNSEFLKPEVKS

SMILES	Avg POC [1] [POC]	Avg POC [2] [POC]	Avg POC [3] [POC]	Avg POC [4] [POC]	Avg POC [5] [POC]	Avg POC [6] [POC]	Avg POC [7] [POC]	Avg POC [8] [POC]	Avg POC [9] [POC]	Avg POC [10] [POC]	Avg POC [11] [POC]	Avg POC [12] [POC]	Avg POC [13] [POC]	Avg POC [14] [POC]	Avg POC [15] [POC]	Avg POC [16] [POC]	Avg POC [17] [POC]	Avg POC [18] [POC]	Avg POC [19] [POC]	Avg POC [20] [POC]	other results
COCCN1C[C@@H](NC(=O)Nc2c(C)c(-c3cnc(C)nc3)nn2-c2ccccc2)[C@H](c2cc(F)cc(F)c2)C1 [Example 14, 1-((3S,4R)-4-(3,5-difluorophenyl)-1-(2-methoxyethyl)pyrrolidin-3-yl)-3-(4-methyl-3-(2-methylpyrimidin-5-yl)-1-phenyl-1H-pyrazol-5-yl)urea]	106	101	93.5	103	93.5	103.5	91	98	108.5	106	96.5	107.5	94	99.5	101.5	101.5	99.5	78.5	107	125	Avg POC [21]: 124.5 POC; Avg POC [22]: 102.5 POC; Avg POC [23]: 103.5 POC; Avg POC [24]: 133.5 POC; Avg POC [25]: 92 POC; Avg POC [26]: 97 POC; Avg POC [27]: 99.5 POC; Avg POC [28]: 113.5 POC; Avg POC [29]: 100.5 POC; Avg POC [30]: 101.5 POC; Avg POC [31]: 80 POC; Avg POC [32]: 99 POC; Avg POC [33]: 99 POC; Avg POC [34]: 97.5 POC; Avg POC [35]: 100.5 POC; Avg POC [36]: 1 POC; Avg POC [37]: 102.5 POC; Avg POC [38]: 89.5 POC; Avg POC [39]: 112.5 POC; Avg POC [40]: 105.5 POC
COCCN1C[C@@H](NC(=O)Nc2c(C)c(-c3ccnc(C)c3)nn2-c2ccccc2)[C@H](c2ccc(F)c(F)c2)C1 [Example 2, 1-((3S,4R)-4-(3,4-difluorophenyl)-1-(2-methoxyethyl)pyrrolidin-3-yl)-3-(4-methyl-3-(2-methylpyridin-4-yl)-1-phenyl-1H-pyrazol-5-yl)urea]	102	101	102.5	113	105.5	89.5	105	97.5	104	102.5	96	107	94	106	86.5	94.5	97	103	99.5	135.5	Avg POC [21]: 113 POC; Avg POC [22]: 113.5 POC; Avg POC [23]: 100 POC; Avg POC [24]: 111.5 POC; Avg POC [25]: 101.5 POC; Avg POC [26]: 96 POC; Avg POC [27]: 102.5 POC; Avg POC [28]: 111 POC; Avg POC [29]: 108 POC; Avg POC [30]: 106.5 POC; Avg POC [31]: 92 POC; Avg POC [32]: 116.5 POC; Avg POC [33]: 89.5 POC; Avg POC [34]: 96 POC; Avg POC [35]: 103.5 POC; Avg POC [36]: 0.5 POC; Avg POC [37]: 96.5 POC; Avg POC [38]: 100.5 POC; Avg POC [39]: 113 POC; Avg POC [40]: 101.5 POC
